Data: paper PMC5430599, “Antiplasmodial dihetarylthioethers target the coenzyme A synthesis pathway in Plasmodium falciparum erythrocytic stages” (Malaria Journal, 2017)

Tested on: asexual erythrocytic stages of transgenic NF54-luc P. falciparum
Test: Luciferase-based viability screening for anti-malarial activity
Format: cell-based, Plasmodium falciparum
Settings: 2 µg/mL
Procedure: Asexual erythrocytic stages of transgenic NF54-luc P. falciparum were used for the luciferase-based viability assay. These parasites constitutively express high levels of luciferase. The parasites were cultured as described previously. Parasite culture with parasitaemia of 0.5–1% was dispensed in triplicate into white 96-well flat-bottom plates (each well contains 250 µL) (NUNC, Roskilde, […], 90% N2, 5% CO2, and 5% O2). 0.01% DMSO was included in the untreated infected RBC cultures as negative control, since the compounds stock initially was diluted in DMSO and each treatment well also contained 0.01% DMSO. Subsequently, 100 µL RPMI1640 media was removed from each well and a 100 µL volume of the Bright-Glo® substrate solution added to each well. The resultant cleavage product of the reaction, light, was measured using a FLUOROSKAN FL luminometer (Thermo), to ascertain viable parasites. Untreated cultures were used as negative controls and to calculate the inhibition rate (0% inhibition of parasite growth). Blasticidin (Sigma-Aldrich, St. Louis, MO, USA), used for selection of transfected parasites, was included as a positive control on each plate and gave >90% inhibition of parasite growth at concentration 2 µg/mL. Compounds with >50% inhibition of viability were rated as actives. Experiments were performed in triplicate and were repeated at least twice.

Row | SMILES | inhibition of parasite growth (positive control)
1 | CN(CC[C@H](N)CC(=O)N[C@H]1C=C[C@H](n2ccc(N)nc2=O)O[C@@H]1C(=O)O)C(=N)N [BS, Blasticidin, reference compound] | > 90%

Same assay, conditions: 3 µM, 48 h; >50% inhibition of viability rated active

Row | SMILES | % inhibition, PfNF54-Luc at 3 µM
2 | Cn1cnnc1Sc1ncnc2sccc12 [Compound 8b] | inactive
3 | Cc1ccc2nc(Sc3ncnc4sccc34)[nH]c2c1 [Compound 8h] | inactive
4 | COc1ccc2[nH]c(Sc3ncnc4sccc34)nc2c1 [Compound 8j] | inactive
5 | Clc1ccc2[nH]c(Sc3ncnc4sccc34)nc2c1 [Compound 8i] | inactive
6 | CN(CC[C@H](N)CC(=O)N[C@H]1C=C[C@H](n2ccc(N)nc2=O)O[C@@H]1C(=O)O)C(=N)N [BS, Blasticidin, reference compound] | 99.3 ± 0.7%
7 | c1coc(-c2nc(Sc3ncnc4sccc34)n[nH]2)c1 [Compound 8a] | 33.2 ± 6.8%

Same assay, conditions: Plasmodium falciparum, NF54, 48 h, read-out: % inhibition, PfNF54-Luc at 3 µM, 3 µM, 48 h; >50% inhibition of viability rated active

Row | SMILES | inhibition at 3 µM
8 | Cn1cnnc1Sc1ncnc2sccc12 [Compound 8b] | 4.7 ± 2.6%
9 | Fc1ccc(-c2nnc(Sc3ncnc4sccc34)o2)cc1 [Compound 3m] | -8.3 ± 4.1%
10 | c1cncc(-c2nnc(Sc3ncnc4sccc34)o2)c1 [Compound 3i] | -5.5 ± 3.8%
11 | Cc1ccc2nc(Sc3ncnc4sccc34)[nH]c2c1 [Compound 8h] | -1.9 ± 5.3%
12 | O=S(=O)(c1ccc(-c2nnc(Sc3ncnc4sccc34)o2)cc1)N1CCOCC1 [Compound 3l] | 24.3 ± 3.2%
13 | NCc1nnc(Sc2ncnc3sccc23)o1 [Compound 3s] | -2.8 ± 16.6%
14 | COc1ccc2[nH]c(Sc3ncnc4sccc34)nc2c1 [Compound 8j] | -36.3 ± 10.6%
15 | CC(C)(C)OC(=O)NCc1nnc(Sc2ncnc3sccc23)o1 [Compound 3o] | 2.28 ± 3.31%
16 | CCN(CC)S(=O)(=O)c1ccc(-c2nnc(Sc3ncnc4sccc34)o2)cc1 [Compound 3d] | -0.6 ± 5.4%
17 | O=S(=O)(c1ccc(-c2nnc(Sc3ncnc4sccc34)o2)cc1)N1CCCCC1 [Compound 3e] | -7.3 ± 6.9%
18 | CCc1ccc(-c2nnc(Sc3ncnc4sccc34)o2)cc1 [Compound 3k] | -7 ± 1.8%
19 | Clc1ccc2[nH]c(Sc3ncnc4sccc34)nc2c1 [Compound 8i] | -18.4 ± 10.6%
20 | Brc1ccccc1-c1nnc(Sc2ncnc3sccc23)o1 [Compound 3g] | -13.1 ± 9.1%
21 | CC(C)(C)OC(=O)N1CCC(c2nnc(Sc3ncnc4sccc34)o2)CC1 [Compound 3n] | -0.82 ± 3.11%
22 | OCc1nnc(Sc2ncnc3sccc23)o1 [Compound 3q] | -12.3 ± 2.2%
23 | c1coc(-c2nnc(Sc3ncnc4[nH]ccc34)o2)c1 [Compound 6a] | -24.8 ± 13.6%
24 | Clc1ccccc1-c1nnc(Sc2ncnc3sccc23)o1 [Compound 3f] | 1.5 ± 4.3%
25 | c1coc(-c2nnc(Sc3ncnc4[nH]cnc34)o2)c1 [Compound 6b] | 1.79 ± 2.53%
26 | CC(C)(C)c1nnc(Sc2ncnc3sccc23)o1 [Compound 3p] | -14.6 ± 12.9%
27 | N#Cc1nccnc1Sc1nnc(-c2ccco2)o1 [Compound 6c] | 0.98 ± 1.52%
28 | CC1CCc2sc(-c3nnc(Sc4ncnc5sccc45)o3)cc2C1 (stereo not shown) [Compound 3h] | -103 ± 4.4%
29 | c1nc(Sc2nnc(C3CCNCC3)o2)c2ccsc2n1 [Compound 3r] | 7.7 ± 1.8%
30 | c1coc(-c2nc(Sc3ncnc4sccc34)n[nH]2)c1 [Compound 8a] | 33%
31 | Cc1ccc(-c2nnc(Sc3ncnc4sccc34)o2)cc1 [Compound 3j] | -11 ± 6.7%

Same assay, conditions: Plasmodium falciparum, NF54, 48 h, read-out: % inhibition, PfNF54-Luc at 30 µM, 30 µM, 48 h

Row | SMILES | inhibition at 30 µM
32 | COc1ccc(-c2nnc(Sc3ncnc4sccc34)o2)cc1 [Compound 3c] | < 50%

Tested on: Plasmodium falciparum parasites (3D7 strain)
Test: Coenzyme A rescue assay (imaging-based growth inhibition, with or without 0.8 mM CoA)
Format: cell-based
Settings: 0.8 mM CoA
Procedure: Plasmodium falciparum parasites (3D7 strain) were grown in RPMI 1640 supplemented with 25 mM HEPES, 5 mg/mL Albumax II, and 0.37 mM hypoxanthine. Parasites were subjected to two rounds of sorbitol synchronization before undergoing compound treatment. Ring stage parasites were exposed to the experimental compounds alone, or in combination with 0.8 mM coenzyme A (CoA) in 384-wells imaging microplates (CellCarrier, PerkinElmer), as previously described. […] Puromycin 5 µM and untreated solvent were used as in-plate positive and negative controls, respectively. Samples were dissolved in DMSO to a final assay DMSO concentration of 0.4%. […] All sample and control wells contained the same final amounts of solvents. Plates were incubated for 72 h at 90% N2, 5% CO2, 5% O2, then parasites were stained with 2-(4-amidinophenyl)-1H-indole-6-carboxamidine (DAPI), and imaged using an Opera QEHS micro-plate confocal imaging system (PerkinElmer) with 405 nm excitation and 450/50 emission filter, using a 20× water immersion objective. Images were analysed as previously described, to obtain normalized % inhibition data, which were then used to calculate IC50 values, through a four parameter logistic curve fitting in GraphPad Prism v.6. The experiment was carried out in two independent biological replicates, each consisting of two technical replicates. Dose–response curves are illustrated in the Additional file 4.

Row | SMILES | rescue by coenzyme A supplementation (in words)
33 | Cn1cnnc1Sc1ncnc2sccc12 [Compound 8b] | significantly rescued
34 | C[C@@H]1CC[C@H]2[C@@H](C)C(=O)O[C@@H]3O[C@@]4(C)CC[C@@H]1[C@]32OO4 [Artemis, artemisinin, reference compound] | not rescued
35 | CC(C)(CO)C(O)C(=O)NCCCO (stereo not shown) [Pantoth, panthenol, reference compound] | rescued
36 | Cc1csc(Sc2ncnc3sccc23)n1 [Amb180780, reference compound] | rescued
37 | CCN(CC)CCCC(C)Nc1ccnc2cc(Cl)ccc12 (stereo not shown) [Chloroqu, Chloroquine, reference compound] | not rescued
38 | COc1ccc(C[C@H](N)C(=O)N[C@H]2[C@@H](O)[C@H](n3cnc4c(N(C)C)ncnc43)O[C@@H]2CO)cc1 [Puromyc, puromycin, reference compound] | not rescued

Same assay, conditions: IC50 CoA / IC50 solvent

Row | SMILES | IC50 shift with CoA supplementation
39 | Cn1cnnc1Sc1ncnc2sccc12 [Compound 8b] | sevenfold
40 | Cc1csc(Sc2ncnc3sccc23)n1 [Amb180780, reference compound] | > 13 fold

Same assay, conditions: IC50 with 0.8 mM CoA / IC50 solvent; threshold 5× significant

Row | SMILES | IC50-ratio (CoA/solvent)
41 | Cn1cnnc1Sc1ncnc2sccc12 [Compound 8b] | 7.39
42 | Cc1csc(Sc2ncnc3sccc23)n1 [Amb180780, reference compound] | 40.8
43 | CCN(CC)CCCC(C)Nc1ccnc2cc(Cl)ccc12 (stereo not shown) [Chloroqu, Chloroquine, reference compound] | 1.39
44 | COc1ccc(C[C@H](N)C(=O)N[C@H]2[C@@H](O)[C@H](n3cnc4c(N(C)C)ncnc43)O[C@@H]2CO)cc1 [Puromyc, puromycin, reference compound] | 2.78

Same assay, conditions: Plasmodium falciparum, 3D7, 72 h, 0.8 mM CoA (rescue), 72 h; read-out: IC50 [µM], Pf3D7 + 0.8 mM CoA

Row | SMILES | IC50
45 | Cn1cnnc1Sc1ncnc2sccc12 [Compound 8b] | ~40 µM
46 | C[C@@H]1CC[C@H]2[C@@H](C)C(=O)O[C@@H]3O[C@@]4(C)CC[C@@H]1[C@]32OO4 [Artemis, artemisinin, reference compound] | 0.0049 ± 0.0011 µM
47 | Cc1csc(Sc2ncnc3sccc23)n1 [Amb180780, reference compound] | 1.51 ± 0.19 µM
48 | c1coc(-c2nc(Sc3ncnc4sccc34)n[nH]2)c1 [Compound 8a] | 16.1 ± 2.2 µM
49 | COc1ccc(C[C@H](N)C(=O)N[C@H]2[C@@H](O)[C@H](n3cnc4c(N(C)C)ncnc43)O[C@@H]2CO)cc1 [Puromyc, puromycin, reference compound] | 0.0939 ± 0.0016 µM

Same assay, conditions: Plasmodium falciparum, 3D7, 72 h, no CoA (solvent, non-rescue), 72 h; read-out: IC50 [µM], Pf3D7 + solvent

Row | SMILES | IC50
50 | Cn1cnnc1Sc1ncnc2sccc12 [Compound 8b] | 6.4 ± 4.3 µM
51 | C[C@@H]1CC[C@H]2[C@@H](C)C(=O)O[C@@H]3O[C@@]4(C)CC[C@@H]1[C@]32OO4 [Artemis, artemisinin, reference compound] | 0.00337 ± 0.00065 µM
52 | CC(C)(CO)C(O)C(=O)NCCCO (stereo not shown) [Pantoth, panthenol, reference compound] | 752 ± 82 µM
53 | Cc1csc(Sc2ncnc3sccc23)n1 [Amb180780, reference compound] | 0.037 ± 0.0017 µM
54 | c1coc(-c2nc(Sc3ncnc4sccc34)n[nH]2)c1 [Compound 8a] | 10.5 ± 1.1 µM

Same assay, conditions: Plasmodium falciparum, 3D7, 72 h, read-out: IC50 [µM], Pf3D7 + 0.8 mM CoA

Row | SMILES | IC50
55 | CCN(CC)CCCC(C)Nc1ccnc2cc(Cl)ccc12 (stereo not shown) [Chloroqu, Chloroquine, reference compound] | 0.0271 ± 0.0094 µM

Same assay, conditions: Plasmodium falciparum, 3D7, 72 h, read-out: IC50 [µM], Pf3D7 + solvent

Row | SMILES | IC50
56 | CCN(CC)CCCC(C)Nc1ccnc2cc(Cl)ccc12 (stereo not shown) [Chloroqu, Chloroquine, reference compound] | 0.0195 ± 0.0034 µM

Tested on: human embryonic kidney (HEK-293) cells
Test: Cytotoxicity assay: human HEK-293 cell line (resazurin)
Format: cell-based
Settings: Homo sapiens, HEK293, 72 h, read-out: IC50 [µM], HEK-293
Procedure: Cytotoxicity against human embryonic kidney (HEK-293) cells was assessed as previously described. […] Cells were detached using Accutase treatment, then seeded into black clear-bottom 384-wells fluorescence microplates (Greiner), at a cell density of 44,000 cells/mL in 45 µL/well, using a Benchtop liquid dispenser (Thermo Fisher Multidrop). After seeding, the cells were brought back to the incubator and allowed to settle and reattach overnight. […] Plates were incubated at the standard condition above for 72 h. At the end of the incubation the medium in each well was replaced with 1 mM resazurin, and the plates were read using a multilabel microplate reader (PerkinElmer Envision) at 530 nm excitation and 595 nm emission wavelengths after a further 6 h incubation. Inhibition data was generated using Office Excel 2013 (Microsoft). IC50 values were calculated by fitting a four-parameter nonlinear regression model using Prism v.6.0 (Graphpad Software Inc., La Jolla, CA, USA).

Row | SMILES | IC50
57 | CCN(CC)CCCC(C)Nc1ccnc2cc(Cl)ccc12 (stereo not shown) [Chloroqu, Chloroquine, reference compound] | > 40 µM

Same assay, conditions: Homo sapiens, HEK293; cytotoxicity, 72 h; read-out: IC50 [µM], HEK-293

Row | SMILES | IC50
58 | Cn1cnnc1Sc1ncnc2sccc12 [Compound 8b] | > 40 µM
59 | Cc1csc(Sc2ncnc3sccc23)n1 [Amb180780, reference compound] | > 40 µM
60 | c1coc(-c2nc(Sc3ncnc4sccc34)n[nH]2)c1 [Compound 8a] | > 40 µM
61 | COc1ccc(C[C@H](N)C(=O)N[C@H]2[C@@H](O)[C@H](n3cnc4c(N(C)C)ncnc43)O[C@@H]2CO)cc1 [Puromyc, puromycin, reference compound] | 0.36 µM

Tested on: Plasmodium berghei
Test: not given
Set-up: method as in PMID 24900512
Settings: 50 mg/kg subcutaneously over 4 days; cited from earlier work

Row | SMILES | drop in parasitaemia | life-span of infected animals
62 | c1ccn2c(Sc3ncnc4sccc34)nnc2c1 [compound 33] | 34% | failed to prolong the life-span

Tested on: Plasmodium falciparum
Test: not given
Set-up: method as in PMID 27855724
Settings: addition of pantethine; cited from earlier work

Row | SMILES | rescue of activity by pantethine, dephospho CoA and CoA
63 | Cc1csc(Sc2ncnc3sccc23)n1 [Amb180780, reference compound] | more than 75%
